# Entries after “also recorded” stand apart in the source; their conditions may differ.
# Columns and labels:
# [1] = Human liver microsome stability; assay type: in vitro ADME
# Procedure: The human liver microsome stability test was performed by incubating the compound and human liver microsomes in vitro. First, the compound to be tested was prepared into a 10 mM stock solution in DMSO solvent, and then the compound was diluted to 0.5 mM with acetonitrile. Human liver microsomes (Corning) were diluted with PBS into a microsome/buffer solution, and the solution was used to dilute 0.5 mM compound into a working solution, in which the concentration of the compound was 1.5 μM, and the concentration of human liver microsomes was 0.75 mg/mL. A deep-well plate was taken, 30 μL of the working solution was added per well, and then 15 μL of pre-heated 6 mM NADPH solution was added thereto to initiate a reaction, and the reaction was incubated at 37 °C At 0, 5, 15, 30, and 45 min of the incubation, 135 μL of acetonitrile was added to the corresponding wells to terminate the reaction. After the reaction was terminated with acetonitrile at the last time point of 45 min, the deep-well plate was vortexed for 10 min (600 rpm/min), and then centrifuged for 15 min. After centrifugation, the supernatant was collected, and added with purified water in a ratio of 1:1 to perform LC-MS/MS detection. A ratio of a peak area of compound to a peak area of internal standard at each time point was obtained, and the peak area ratios of the compound at 5, 15, 30, and 45 min were compared with the peak area ratio at 0 min to calculate the remaining percentage of the compound at each time point. T1/2 was calculated by using GraphPad 5 software.
# CYP3A4 = target: T1, CYP3A4 (Homo sapiens, UniProt P08684); assay: Inhibition of cytochrome P450 CYP3A4 (substrates midazolam and testosterone); assay type: in vitro ADME; details: role: inhibitor; summary statement
# T1 construct: probe substrates midazolam and testosterone, ketoconazole control
# T1 sequence (P08684 whole entry): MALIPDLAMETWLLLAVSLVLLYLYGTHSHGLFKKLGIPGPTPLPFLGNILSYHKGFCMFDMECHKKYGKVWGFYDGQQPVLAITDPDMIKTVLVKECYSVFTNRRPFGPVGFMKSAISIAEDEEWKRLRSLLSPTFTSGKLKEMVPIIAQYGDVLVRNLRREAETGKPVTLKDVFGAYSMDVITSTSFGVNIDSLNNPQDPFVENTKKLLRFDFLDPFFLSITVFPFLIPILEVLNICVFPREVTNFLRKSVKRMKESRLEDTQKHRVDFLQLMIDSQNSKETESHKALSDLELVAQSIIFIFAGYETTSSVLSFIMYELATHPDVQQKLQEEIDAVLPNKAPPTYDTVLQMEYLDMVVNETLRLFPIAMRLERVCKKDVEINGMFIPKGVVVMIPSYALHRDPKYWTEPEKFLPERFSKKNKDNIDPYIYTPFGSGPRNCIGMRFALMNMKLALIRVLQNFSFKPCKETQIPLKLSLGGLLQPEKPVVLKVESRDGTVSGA
# Procedure: The inhibitory potential of compounds on cytochrome P450 (CYP450) subtype CYP3A4 (two substrates of midazolam and testosterone) was detected. First, the compound to be tested was prepared into a 10 mM stock solution in DMSO solvent, and the CYP3A4 inhibitor ketoconazole was prepared as 10 mM, 2.5 mM, and 2.5 mM stock solutions in DMSO solvent. The test compound and ketoconazole were diluted to 400-fold final concentration (compound: 10 μM, ketoconazole: 2.5 μM) with acetonitrile.
# NADPH cofactor (10 mL of potassium phosphate buffer added with 66.7 mg NADPH) at 4-fold final concentration and substrates were prepared with potassium phosphate buffer (0.1 M, pH=7.4), with CYP3A4 substrate midazolam at a final concentration of 320 μM and CYP3A4 substrate testosterone at a final concentration of 20 μM.
# A human liver microsome solution at a concentration of 0.2 mg/mL was prepared with potassium phosphate buffer on ice. A solution of the compound to be tested and a control inhibitor (control compound) solution at 2-fold final concentration were prepared with the human liver microsome solution on ice. The test wells were added with 30 mL of the test compound solution and the control inhibitor solution respectively, and then added with 15 mL of the substrate for duplication. […]
# [2] = Mouse pharmacokinetic test, oral gavage; assay type: in vivo, male ICR mice; details: summary statement; listed as compound of the present disclosure
# Procedure: Male ICR mice (20 to 25 g) were used, and fasted overnight. Three mice were taken and orally administered by gavage (10 mg/kg). Blood was collected before the administration, and at 15 min, 30 min, 1 h, 2 h, 4 h, 8 h, and 24 h after the administration. 6,800 g of the blood samples were centrifuged at 2 to 8 °C for 6 min, and plasma was collected and stored at −80 °C The plasma at each time point was taken and added with an acetonitrile solution containing internal standard in 3 to 5 times the amount, vortexed and mixed for 1 min, and centrifuged at 13,000 rpm/min at 4 °C for 10 min. The supernatant was collected, added with water in 3 times the amount, and mixed. An appropriate amount of the mixture was taken for LC-MS/MS analysis. The main pharmacokinetic parameters were analyzed using WinNonlin 7.0 software with non-compartmental model.
# KRAS G12C-SOS1 = target: T2, KRAS G12C-SOS1 (Homo sapiens, UniProt Q07889); assay: Inhibitory effect on KRAS G12C-SOS1; assay type: biochemical; design: SOS1 catalytic domain likely; details: summary statement
# T2 sequence (Q07889 1-1333): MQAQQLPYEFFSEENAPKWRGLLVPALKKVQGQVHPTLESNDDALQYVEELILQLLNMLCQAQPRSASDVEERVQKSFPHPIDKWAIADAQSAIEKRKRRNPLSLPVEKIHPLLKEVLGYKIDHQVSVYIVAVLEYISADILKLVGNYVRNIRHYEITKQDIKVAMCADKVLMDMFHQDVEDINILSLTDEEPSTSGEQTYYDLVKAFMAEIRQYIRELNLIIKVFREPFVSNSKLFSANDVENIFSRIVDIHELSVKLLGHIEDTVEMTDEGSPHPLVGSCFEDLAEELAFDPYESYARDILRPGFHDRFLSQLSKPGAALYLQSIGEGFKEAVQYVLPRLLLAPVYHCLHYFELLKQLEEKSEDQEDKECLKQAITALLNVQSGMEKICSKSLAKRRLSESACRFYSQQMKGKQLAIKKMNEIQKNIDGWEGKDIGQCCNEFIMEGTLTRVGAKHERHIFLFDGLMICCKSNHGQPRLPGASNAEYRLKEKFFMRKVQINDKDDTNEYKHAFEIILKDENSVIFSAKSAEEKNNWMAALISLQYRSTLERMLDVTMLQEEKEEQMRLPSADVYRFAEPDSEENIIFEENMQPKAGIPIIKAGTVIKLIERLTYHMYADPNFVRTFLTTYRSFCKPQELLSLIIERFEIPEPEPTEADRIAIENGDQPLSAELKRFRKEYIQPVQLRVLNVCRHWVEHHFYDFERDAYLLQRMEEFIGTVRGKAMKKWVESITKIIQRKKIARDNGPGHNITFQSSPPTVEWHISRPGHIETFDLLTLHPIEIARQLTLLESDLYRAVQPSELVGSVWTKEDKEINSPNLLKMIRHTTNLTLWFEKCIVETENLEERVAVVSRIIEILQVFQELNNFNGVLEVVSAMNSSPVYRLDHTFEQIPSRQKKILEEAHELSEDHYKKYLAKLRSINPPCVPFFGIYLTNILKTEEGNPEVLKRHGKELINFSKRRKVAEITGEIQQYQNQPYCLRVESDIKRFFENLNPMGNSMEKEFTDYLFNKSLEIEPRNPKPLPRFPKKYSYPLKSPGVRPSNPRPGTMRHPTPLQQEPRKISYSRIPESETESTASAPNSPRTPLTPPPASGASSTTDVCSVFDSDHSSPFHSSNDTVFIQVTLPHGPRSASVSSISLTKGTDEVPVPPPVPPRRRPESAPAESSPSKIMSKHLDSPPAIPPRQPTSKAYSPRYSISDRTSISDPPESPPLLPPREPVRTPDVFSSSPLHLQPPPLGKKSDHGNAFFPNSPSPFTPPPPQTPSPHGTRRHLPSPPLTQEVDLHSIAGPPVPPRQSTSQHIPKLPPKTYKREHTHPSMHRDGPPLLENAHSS
smiles,measurement,setting,value
"Cc1nc(N[C@H](C)c2cccc(S(F)(F)(F)(F)F)c2)c2cn(C3(CF)CC3)c(=O)cc2n1 [compound of formula I, (R)-6-(1-(fluoromethyl)cyclopropyl)-2-methyl-4-((1-(3-(pentafluorosulfanyl)phenyl)ethyl)amino)pyrido[4,3-d]pyrimidin-7(6H)-one]",remaining at 0.5 h,"[1]; human liver microsomes, 30 min, 37 °C, NADPH, read-out: Remaining percentage of compound after incubation for 30 min",98.7%
same,hepatic metabolic stability,[1]; summary statement,good hepatic metabolic stability
same,metabolism in the human body,[1]; summary statement,slow metabolism in the human body
same,inhibitory effect on CYP3A4 enzymes,CYP3A4,no inhibitory effect
same,pharmacokinetic properties / exposure,[2],high exposure; also recorded: excellent pharmacokinetic properties
same,inhibitory effect on KRAS G12C-SOS1,KRAS G12C-SOS1,significant inhibitory effect

# — patent US20260337190A1, “CRYSTAL FORM OF PYRIDINOPYRIMIDINONE COMPOUND, ACID SALT THEREOF, CRYSTAL FORM OF ACID SALT THEREOF, AND USE” (Wuhan Humanwell Innovative Drug Research and Development …, priority 2022, published 2026)
